{"source": "patent US7098218B2", "about": "“Steroidal compounds for inhibiting steroid sulphatase” (priority 2001, dated 2006)", "key": {"[1]": {"molecular_target": "T1, human placental steroid sulphatase (Homo sapiens, UniProt P08842)", "T1 construct": "Placental microsomes (100000 g fraction) were prepared from a positive-positive human placenta from a normal-term pregnancy; from tissue; host or cells: human placenta, microsomal fraction", "T1 sequence (P08842 22-583)": "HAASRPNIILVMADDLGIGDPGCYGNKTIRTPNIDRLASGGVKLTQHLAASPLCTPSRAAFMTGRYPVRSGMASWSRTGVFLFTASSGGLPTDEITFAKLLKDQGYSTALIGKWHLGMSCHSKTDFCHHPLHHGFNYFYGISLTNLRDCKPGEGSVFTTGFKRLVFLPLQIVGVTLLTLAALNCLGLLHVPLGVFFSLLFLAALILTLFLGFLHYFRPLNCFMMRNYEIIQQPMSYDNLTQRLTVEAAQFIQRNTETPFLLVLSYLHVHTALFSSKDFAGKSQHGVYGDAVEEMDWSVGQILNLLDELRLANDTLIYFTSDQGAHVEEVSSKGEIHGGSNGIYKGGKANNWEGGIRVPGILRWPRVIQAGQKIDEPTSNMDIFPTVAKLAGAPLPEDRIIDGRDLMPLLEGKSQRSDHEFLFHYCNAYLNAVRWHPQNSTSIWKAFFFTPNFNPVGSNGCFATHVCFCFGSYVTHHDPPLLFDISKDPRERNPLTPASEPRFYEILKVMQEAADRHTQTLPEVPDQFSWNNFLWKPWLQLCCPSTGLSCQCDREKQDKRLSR", "assay": "Inhibition of oestrone sulphatase activity in human placental microsomes", "type": "biochemical", "conditions": "for inhibition at 0.0001 µM / inhibition at 0.001 µM / inhibition at 0.01 µM / inhibition at 0.1 µM / inhibition at 1 µM / inhibition at 10 µM: read-out: Mean % Inhibition ± SD"}, "[2]": {"molecular_target": "T2, E2DH Type II (HSD Type II) in MDA-MB231 breast cancer cells (Homo sapiens, UniProt P37059)", "T2 construct": "endogenous in cells; host or cells: MDA-MB-231 breast cancer cells", "T2 sequence (P37059 1-387)": "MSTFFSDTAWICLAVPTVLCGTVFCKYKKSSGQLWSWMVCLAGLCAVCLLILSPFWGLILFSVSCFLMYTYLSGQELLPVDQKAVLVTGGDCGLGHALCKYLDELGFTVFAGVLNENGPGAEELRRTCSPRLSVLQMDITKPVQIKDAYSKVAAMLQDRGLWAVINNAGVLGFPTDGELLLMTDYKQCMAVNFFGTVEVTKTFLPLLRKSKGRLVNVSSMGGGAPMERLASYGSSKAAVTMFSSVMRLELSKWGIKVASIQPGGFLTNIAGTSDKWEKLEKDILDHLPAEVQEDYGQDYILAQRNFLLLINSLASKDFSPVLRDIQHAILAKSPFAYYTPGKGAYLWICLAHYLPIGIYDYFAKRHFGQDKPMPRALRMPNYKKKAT", "assay": "Conversion of oestradiol to oestrone in intact MDA-MB231 cell monolayers (Protocol 7)", "type": "cell-based", "conditions": "MDA-MB-231, measured at 10 μM, read-out: % Inhibition E2 → E1 ± SD (HSD Type II)", "experimental": "(§1) The ability of compounds to inhibit steroid dehydrogenase activity can be assessed using either T47D breast cancer cells in which E2HSD Type I activity is abundant or MDA-MB-231 cells for Type II inhibitor studies. In both cell lines formation of products is linear with respect to time and cell numbers. Details on a suitable Assay Protocol are presented in the Examples section.\n(§2) Conversion of oestrone to oestradiol (E1→E2, E2DH Type I) and oestradiol to oestrone (E2→E1, E2DH Type II) was measured in intact cell monolayers of T47D and MDA-MB231 breast cancer cells respectively. Cells were cultured in flasks until they were 80–90% confluent. ^3 H-E1 or ^3H-E2 (6 pmol, ˜90 Ci/mmol) were added to each flask in the absence (control) or presence of various test compounds (10 μM) in 2.5 ml of medium. Substrate was also added to flasks without cells and incubated in parallel (blanks).\n(§3) After incubation with T47D cells for 30 min or MDA cells for 3 h at 37° C., 2 ml of the medium was added to test tubes containing ^14C-E2 or ^14C-E1 (˜5000 cpm) and 50 μg E2 or E1 respectively. Steroids were extracted from the aqueous medium with diethyl ether (4 ml). The ether phase was decanted into separate tubes after freezing the aqueous phase in solid carbon dioxide-methanol mixture. The ether was evaporated to dryness under a stream of air at 40° C. The residue was dissolved in a small volume of diethyl ether and applied to TLC plates containing a fluorescent indicator. E1 and E2 were separated by TLC using DCM-Ethyl acetate (4:1 v/v). The position of the product from each incubation flask was marked on the TLC plate after visualisation under UV light. The marked regions were cut out and placed in scintillation vials containing methanol (0.5 ml) to elute the product. The amount of ^3 H-product formed and ^14C-E1 or ^14C-E2 recovered were calculated after scintillation spectrometry. The amount of product formed was corrected for procedural losses and for the number of cells in each flask."}, "[3]": {"molecular_target": "T3, E2DH Type I (HSD Type I) in T47D breast cancer cells (Homo sapiens, UniProt P14061)", "T3 construct": "T47D breast cancer cells in which E2HSD Type I activity is abundant; endogenous in cells; host or cells: T47D breast cancer cells", "T3 sequence (P14061 2-328 limits assumed)": "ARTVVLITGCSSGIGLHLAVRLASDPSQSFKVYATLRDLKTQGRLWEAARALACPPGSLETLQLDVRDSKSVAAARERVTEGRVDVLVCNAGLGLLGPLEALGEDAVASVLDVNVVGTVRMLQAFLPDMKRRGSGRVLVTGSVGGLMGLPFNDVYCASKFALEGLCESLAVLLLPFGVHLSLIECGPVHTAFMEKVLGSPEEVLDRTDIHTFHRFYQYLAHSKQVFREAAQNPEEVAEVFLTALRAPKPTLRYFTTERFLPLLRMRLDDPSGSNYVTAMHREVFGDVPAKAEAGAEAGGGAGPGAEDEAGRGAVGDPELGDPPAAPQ", "assay": "Conversion of oestrone to oestradiol in intact T47D cell monolayers (Protocol 7)", "type": "cell-based", "conditions": "T47D, measured at 10 μM, read-out: % Inhibition E1 → E2 ± SD (HSD Type I)", "experimental": "as §1, §2, §3"}, "STS": {"molecular_target": "T4, STS (Homo sapiens, UniProt P08842)", "T4 construct": "can be assessed using either intact MCF-7 breast cancer cells or placental microsomes", "T4 sequence (P08842 22-583)": "T1 sequence (P08842 22-583)", "assay": "biochemical", "conditions": "STS IC50 (nM), inhibition of E1S→E1; Table 1"}}, "data": [{"molecule": "C[C@]12CCC3c4ccc(O)cc4CCC3C1CC(=O)NC2=O", "note": "(stereo partly shown)", "values": [{"measurement": "melting point", "result": "297 to 300", "unit": "°C"}]}, {"molecule": "CN1C(=O)CC2C3CCc4cc(O)ccc4C3CC[C@]2(C)C1=O", "note": "(stereo partly shown)", "values": [{"measurement": "melting point", "result": "328 to 330", "unit": "°C"}]}, {"molecule": "CCCN1C(=O)CC2C3CCc4cc(O)ccc4C3CC[C@]2(C)C1=O", "note": "(stereo partly shown)", "values": [{"measurement": "melting point", "result": "183 to 186", "unit": "°C"}]}, {"molecule": "CCCCCN1C(=O)CC2C3CCc4cc(O)ccc4C3CC[C@]2(C)C1=O", "note": "(stereo partly shown)", "values": [{"measurement": "melting point", "result": "181 to 184", "unit": "°C"}]}, {"molecule": "C[C@]12CCC3c4ccc(O)cc4CCC3C1CC(=O)N(Cc1ccccc1)C2=O", "note": "(stereo partly shown)", "values": [{"measurement": "melting point", "result": "298 to 301", "unit": "°C"}]}, {"molecule": "C[C@]12CCC3c4ccc(O)cc4CCC3C1CC(=O)N(CCCCBr)C2=O", "note": "(stereo partly shown)", "values": [{"measurement": "melting point", "result": "165 to 167", "unit": "°C"}]}, {"molecule": "C=CCN1C(=O)CC2C3CCc4cc(O)ccc4C3CC[C@]2(C)C1=O", "note": "(stereo partly shown)", "values": [{"measurement": "melting point", "result": "147 to 149", "unit": "°C"}]}, {"molecule": "CCN1C(=O)CC2C3CCc4cc(O)ccc4C3CC[C@]2(C)C1=O", "note": "(stereo partly shown)", "values": [{"measurement": "melting point", "result": "306 to 308", "unit": "°C"}]}, {"molecule": "CCCCCCN1C(=O)CC2C3CCc4cc(O)ccc4C3CC[C@]2(C)C1=O", "note": "(stereo partly shown)", "values": [{"measurement": "melting point", "result": "157 to 159", "unit": "°C"}]}, {"molecule": "C[C@]12CCC3c4ccc(O)cc4CCC3C1CC(=O)N(CC1CC1)C2=O", "note": "(stereo partly shown)", "values": [{"measurement": "melting point", "result": "238 to 240", "unit": "°C"}]}, {"molecule": "CC(C)(C)c1ccc(CN2C(=O)CC3C4CCc5cc(O)ccc5C4CC[C@]3(C)C2=O)cc1", "note": "(stereo partly shown)", "values": [{"measurement": "melting point", "result": "128 to 130", "unit": "°C"}]}, {"molecule": "C[C@]12CCC3c4ccc(OS(N)(=O)=O)cc4CCC3C1CC(=O)NC2=O", "note": "(stereo partly shown) [Compound 36, 3-Sulfamoyl-16,17-seco-estra-1,3,5(10)-Triene16,17-imide]", "values": [{"measurement": "IC50", "setting": "[1]", "result": 20, "unit": "nM"}, {"measurement": "inhibition at 0.0001 µM", "setting": "[1]", "result": "-6.5 ± 3.6", "unit": "%"}, {"measurement": "inhibition at 0.001 µM", "setting": "[1]", "result": "-2.5 ± 3", "unit": "%"}, {"measurement": "inhibition at 0.01 µM", "setting": "[1]", "result": "17.4 ± 32.3", "unit": "%"}, {"measurement": "inhibition at 0.1 µM", "setting": "[1]", "result": "72.6 ± 3.1", "unit": "%"}, {"measurement": "inhibition at 1 µM", "setting": "[1]", "result": "93.8 ± 4.2", "unit": "%"}, {"measurement": "inhibition at 10 µM", "setting": "[1]", "result": "98.7 ± 2.7", "unit": "%"}]}, {"molecule": "CN1C(=O)CC2C3CCc4cc(OS(N)(=O)=O)ccc4C3CC[C@]2(C)C1=O", "note": "(stereo partly shown) [Compound 37, 3-Sulfamoyl-N-methyl-16,17-seco-estra-1,3,5(10)-triene-16,17-imide]", "values": [{"measurement": "IC50", "setting": "[1]", "result": 12, "unit": "nM"}, {"measurement": "inhibition at 0.0001 µM", "setting": "[1]", "result": "4.7 ± 3", "unit": "%"}, {"measurement": "inhibition at 0.001 µM", "setting": "[1]", "result": "15 ± 2.6", "unit": "%"}, {"measurement": "inhibition at 0.01 µM", "setting": "[1]", "result": "46.4 ± 6", "unit": "%"}, {"measurement": "inhibition at 0.1 µM", "setting": "[1]", "result": "81.9 ± 3.3", "unit": "%"}, {"measurement": "inhibition at 1 µM", "setting": "[1]", "result": "96.4 ± 5.1", "unit": "%"}, {"measurement": "inhibition at 10 µM", "setting": "[1]", "result": "99.1 ± 0.2", "unit": "%"}]}, {"molecule": "C[C@]12CCC3c4ccc(OS(N)(=O)=O)cc4CCC3C1CC(=O)N(Cc1ccccc1)C2=O", "note": "(stereo partly shown) [STX 236, 3-Sulfamoyl-N-benzyl-16,17-seco-estra-1,3,5(10)-triene-16,7-imide]", "values": [{"measurement": "inhibition of STS (in words)", "setting": "[1]; in vitro", "result": "in a minor extend"}]}, {"molecule": "C[C@]12CCC3c4ccc(O)cc4CCC3C1CC(=O)NC2=O", "note": "(stereo partly shown) [compound 187]", "values": [{"measurement": "inhibition at 10 µM", "setting": "[2]", "result": "-15.4 ± 0.41", "unit": "%"}, {"measurement": "inhibition at 10 µM", "setting": "[3]", "result": "25.3 ± 2.2", "unit": "%"}]}, {"molecule": "CN1C(=O)CC2C3CCc4cc(O)ccc4C3CC[C@]2(C)C1=O", "note": "(stereo partly shown) [compound 188]", "values": [{"measurement": "inhibition at 10 µM", "setting": "[2]", "result": "-3.51 ± 2.44", "unit": "%"}, {"measurement": "inhibition at 10 µM", "setting": "[3]", "result": "33 ± 1.79", "unit": "%"}]}, {"molecule": "CCCN1C(=O)CC2C3CCc4cc(O)ccc4C3CC[C@]2(C)C1=O", "note": "(stereo partly shown) [compound 189]", "values": [{"measurement": "inhibition at 10 µM", "setting": "[2]", "result": "5.05 ± 2.31", "unit": "%"}, {"measurement": "inhibition at 10 µM", "setting": "[3]", "result": "17 ± 3.25", "unit": "%"}]}, {"molecule": "CCCCCN1C(=O)CC2C3CCc4cc(O)ccc4C3CC[C@]2(C)C1=O", "note": "(stereo partly shown) [compound 190]", "values": [{"measurement": "inhibition at 10 µM", "setting": "[2]", "result": "0.48 ± 4.76", "unit": "%"}, {"measurement": "inhibition at 10 µM", "setting": "[3]", "result": "24.1 ± 4.59", "unit": "%"}]}, {"molecule": "CCCN1C(=O)CC2C3CCc4cc(OS(N)(=O)=O)ccc4C3CC[C@]2(C)C1=O", "note": "(stereo partly shown) [compound 213]", "values": [{"measurement": "inhibition at 10 µM", "setting": "[2]", "result": "14.3 ± 14.8", "unit": "%"}, {"measurement": "IC50", "setting": "STS", "result": 41, "unit": "nM"}, {"measurement": "inhibition at 10 µM", "setting": "[3]", "result": "22.5 ± 1.62", "unit": "%"}]}]}
